Data taken from patent US5008252A, “Process for inhibiting herpes simplex virus-specified thymidine kinase” (The University of North Carolina at Chapel Hill, priority 1987, dated 1991).

System: HSV-1 (strain KOS)-infected HeLa BU cells
Test: Virus yield assay
Assay type: cell-based
Conditions: for reversal of antiviral activity by 5'-Et-dThd: 100 μM 5'-Et-dThd, ACV 15 μM, DHPG 2 μM, FIAC 1 μM, BVDU 1 μM, 5'-NH2-dThd 500 μM; for % PFU with a 5'-Et-dThd conc. of 2.5 μM: drug (μM as in row; None = 5'-Et-dThd alone) plus 2.5 μM 5'-Et-dThd; for % PFU with a 5'-Et-dThd conc. of 25 μM: drug (μM as in row; None = 5'-Et-dThd alone) plus 25 μM 5'-Et-dThd; for % PFU with a 5'-Et-dThd conc. of 0 μM: drug alone, drug μM in parentheses in row: ACV 15, FIAC 1, DHPG 2, BVDU 1, 5'-NH2-dThd 500
Experimental: Cell and virus growth inhibition. Cell growth inhibition and the virus yield assay were performed in accordance with the protocol described by Cheng, Y.-C., Grill, S.P., Ruth, J. and Bergstrom, D. E. (Antimicrob. Agents Chemother. 18:957-961 (1980)) with the exceptions that all studies were done using 5% dialyzed fetal bovine serum; the multiplicity of infection was 3 PFU/cell and Vero cells were used instead of CV-1 cells for titration in the virus yield assays.

[1] = Table II, drug (μM as in row; None = 5'-Et-dThd alone) plus 100 μM 5'-Et-dThd

| SMILES | reversal of antiviral activity by 5'-Et-dThd | % PFU with a 5'-Et-dThd conc. of 2.5 μM (Table II) | % PFU with a 5'-Et-dThd conc. of 25 μM (Table II) | % PFU with a 5'-Et-dThd conc. of 100 μM [1] | % PFU with a 5'-Et-dThd conc. of 0 μM (Table II) | % PFU with 100 μM 5'-Et-dThd relative to aphidicolin alone (0.2 μM aphidicolin plus 100 μM 5'-Et-dThd) | activity at 0.2 µM (Human alphaherpesvirus 1, HeLa, read-out: %PFU with a 5'-Et-dThd conc. of 0 μM) | %PFU with a 5'-Et-dThd conc. of 5 μM (Table III, aphidicolin 0.2 μM (None = 5'-Et-dThd alone) plus 5 μM 5'-Et-dThd) | %PFU with a 5'-Et-dThd conc. of 20 μM (Table III, aphidicolin 0.2 μM (None = 5'-Et-dThd alone) plus 20 μM 5'-Et-dThd) | % PFU with a 5'-Et-dThd conc. of 100 μM (Table III, aphidicolin 0.2 μM (None = 5'-Et-dThd alone) plus 100 μM 5'-Et-dThd) |
| --- | --- | --- | --- | --- | --- | --- | --- | --- | --- | --- |
| Cc1cn([C@H]2C[C@H](O)[C@@H](CN)O2)c(=O)[nH]c1=O [5'-NH2-dThd, 5'-amino-dThd] | 250 fold | 0.3% | 3% | 50% | 0.2% |  |  |  |  |  |
| Nc1nc2c(ncn2COCCO)c(=O)[nH]1 [ACV, acyclovir] | 35 fold | 9% | 45% | 70% | 2% |  |  |  |  |  |
| C[C@@]1(CO)[C@H](O)CC[C@@]2(C)[C@H]1CC[C@H]1C[C@@H]3C[C@@]12CC[C@]3(O)CO [Aphidicolin, aphidicolin] |  |  |  |  |  | less than one half | 54% | 65% | 45% | 21% |
| O=c1[nH]c(=O)n([C@H]2C[C@H](O)[C@@H](CO)O2)cc1/C=C/Br [BVDU, (E)-5-(2-bromovinyl)-2'-deoxyuridine] | 15 fold | 9.5% | 13% |  | 0.9% |  |  |  |  |  |
| Nc1nc2c(ncn2COC(CO)CO)c(=O)[nH]1 [DHPG, 9-(1,3-dihydroxy-2-propoxymethyl) guanine] | 100 fold | 0.2% | 4% | 10% | 0.1% |  |  |  |  |  |
| Nc1nc(=O)n([C@@H]2O[C@H](CO)[C@@H](O)[C@@H]2F)cc1I [FIAC, fluoroido-arabinosyl-cytosine] | 98 fold | 26% | 59% |  | 0.6% |  |  |  |  |  |
